Reference: US20220087983A1, “ACTIVATING PYRUVATE KINASE R” (FORMA Therapeutics, Inc., priority 2020, published 2022)

Tests used:
CYP2C9 = molecular target: T1, CYP2C9 (Homo sapiens, UniProt P11712); experiment: Single substrate DDI assay, reversible CYP inhibition in human liver microsomes; format: in vitro ADME
T1 construct: from tissue; host or cells: human liver microsomes

CYP1A2 = molecular target: T2, CYP1A2 (Homo sapiens, UniProt P05177); experiment: as above; format: in vitro ADME
T2 construct: from tissue; host or cells: human liver microsomes
T2 sequence (P05177 1-516): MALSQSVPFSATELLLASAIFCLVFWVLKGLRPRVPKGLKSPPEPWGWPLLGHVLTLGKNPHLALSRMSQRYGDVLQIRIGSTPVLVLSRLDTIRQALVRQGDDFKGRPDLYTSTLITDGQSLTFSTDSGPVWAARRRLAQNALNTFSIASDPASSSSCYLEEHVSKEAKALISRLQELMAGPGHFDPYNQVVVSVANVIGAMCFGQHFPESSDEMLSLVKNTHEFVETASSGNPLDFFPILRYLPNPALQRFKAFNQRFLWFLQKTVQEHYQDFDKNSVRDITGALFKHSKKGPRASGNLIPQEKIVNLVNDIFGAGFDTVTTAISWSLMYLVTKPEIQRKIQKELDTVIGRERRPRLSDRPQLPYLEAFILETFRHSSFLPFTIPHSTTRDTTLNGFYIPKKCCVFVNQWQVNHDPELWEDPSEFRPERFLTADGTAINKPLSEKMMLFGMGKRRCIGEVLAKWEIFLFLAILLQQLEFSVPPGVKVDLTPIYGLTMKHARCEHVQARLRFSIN

2,3-DPG blood levels = experiment: Phase 1: blood 2,3-DPG levels in healthy volunteers (LC-MS/MS); format: in vivo, human; conditions: for Mean maximum percent change from baseline in 2,3-DPG: all doses and timepoints
Method: In this study, SAD/MAD cohorts are randomized (3 to 1) to receive Compound 1 or placebo (P). Compound 1 was evaluated first in 4 healthy SAD cohorts and 4 healthy MAD (14-day dosing period) cohorts. Based on the safety, and PK/PD profile from HS, Compound 1 is then evaluated in 1 SCD SAD cohort and 2 SCD MAD cohorts. Specifically, based on the safety and pharmacokinetic/pharmacodynamics (PK/PD) profile in healthy volunteer studies, Compound 1 is evaluated in patients (pts) with SCD, first in a single dose (SD or SAD) cohort and then in multiple-dose (MD or MAD) cohorts (14-day and 12-week). Safety assessments include AEs, vital signs, ECGs and laboratory parameters. PK/PD blood sampling was performed on Day 1 (SAD/MAD) and Day 14 (MAD) and up to 72 h after the last dose and at the end-of-study visit. PD parameters included 2,3-DPG, ATP, and p50 in all cohorts with additional PD studies (including oxygen scan) performed only in the SCD cohorts. PD parameters included 2,3-DPG, ATP, p50, RBC deformability with controlled deoxygenation and reoxygenation (Lorrca® oxygen scan) and varying osmolality (Lorrca® osmoscan)). To maintain study blind, pt identifiers were removed when needed.
In the SAD cohorts, the subjects' blood 2,3-DPG levels were measured periodically after dosing by a qualified LC-MS/MS method for the quantitation of 2,3-DPG in blood. Decreased 2,3-DPG blood levels were observed 6 hours following a single dose of Compound 1 at all dose levels (earlier timepoints were not collected). Maximum decreases in 2,3-DPG levels generally occurred ˜24 hours after the first dose with the reduction sustained ˜48-72 hr postdose. Table 15 reports the median percentage change in 2,3-DPG blood levels, relative to baseline, measured over time in healthy volunteers after a single dose of Compound 1 (200 mg, 400 mg, 700 mg, or 1000 mg) or placebo. Table 16 reports the mean percentage change in 2,3-DPG blood levels, relative to baseline, measured over time in healthy volunteers after a single dose of Compound 1 (200 mg, 400 mg, 700 mg, or 1000 mg). Accordingly, the median and mean reduction in the concentration of 2,3-DPG, relative to baseline, was at least about 30% at all dose levels tested 24 hours after administration of the single dose.
In the MAD cohorts, the subjects' blood 2,3-DPG levels were measured periodically after dosing by a qualified LC-MS/MS method for the quantitation of 2,3-DPG in blood. The maximum decrease in 2,3-DPG on Day 14 was 55% from baseline (median). […] Table 18A reports the median percentage change in 2,3-DPG blood levels, relative to baseline, measured over time after the first dose on days 1 and 14 in healthy volunteers who received daily doses of Compound 1 (100 mg BID, 200 mg BID, or 300 mg BID) or placebo for 14 days. Table 18B reports the mean percentage change in 2,3-DPG blood levels, relative to baseline, measured over time after the first dose on days 1 and 14 in healthy volunteers who received daily doses of Compound 1 (100 mg BID, 200 mg BID, 300 mg BID, or 400 mg QD) for 14 days. Accordingly, the median and mean reduction in the concentration of 2,3-DPG, relative to baseline, was at least about 25% at all dose levels tested 24 hours after administration of the first dose on day 1 and at least about 40% at all dose levels tested 24 hours after administration of the first dose on day 14.
The following procedures are employed for the analysis of ATP and 2,3-DPG in human whole blood K2EDTA using a protein precipitation extraction procedure and analysis by LC-MS/MS.
The following procedures are used for sample extraction prior to analysis via LC-MS/MS. 15.0 μL of the calibration standards, quality controls, matrix blanks, and samples are aliquoted into a 96-well plate. 50.0 μL of the internal standard spiking solution is added to all samples on the plate, with the exception of the matrix blank samples; 50.0 μL of water is added to the matrix blank samples. […]

T1 sequence (P11712 whole entry): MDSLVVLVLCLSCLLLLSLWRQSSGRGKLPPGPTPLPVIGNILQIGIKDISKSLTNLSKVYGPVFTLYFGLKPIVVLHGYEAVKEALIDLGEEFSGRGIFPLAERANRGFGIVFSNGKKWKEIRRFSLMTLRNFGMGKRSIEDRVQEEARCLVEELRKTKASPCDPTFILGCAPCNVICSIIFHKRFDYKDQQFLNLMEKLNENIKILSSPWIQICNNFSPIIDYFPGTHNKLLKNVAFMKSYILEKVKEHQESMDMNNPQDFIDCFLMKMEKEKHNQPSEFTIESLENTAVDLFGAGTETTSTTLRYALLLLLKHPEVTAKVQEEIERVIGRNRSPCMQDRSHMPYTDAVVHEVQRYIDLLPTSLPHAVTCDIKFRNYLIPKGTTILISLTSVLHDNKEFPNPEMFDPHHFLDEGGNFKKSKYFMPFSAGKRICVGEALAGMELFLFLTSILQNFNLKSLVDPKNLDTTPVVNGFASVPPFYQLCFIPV

**Q.** Which IC50 (CYP2C9) does the source give for O=C([C@H](CO)c1ccccc1)N1CC2=C(C1)CN(S(=O)(=O)c1cnc3c(c1)OCCO3)C2 (single isomer, unassigned) [Compound 1] here?
**A.** > 30 µM

**Q.** And the IC50 (CYP1A2)?
**A.** > 30 µM

**Q.** And the “maximum decrease in 2,3-DPG on Day 14 from baseline (median)” value (2,3-DPG blood levels; HV MAD cohorts)?
**A.** 55%

**Q.** And the “median and mean reduction of 2,3-DPG relative to baseline” value (2,3-DPG blood levels; HV MAD, all dose levels, 24 hours after first dose on day 1)?
**A.** at least 25%

**Q.** And the “median and mean reduction of 2,3-DPG relative to baseline” value (2,3-DPG blood levels; HV MAD, all dose levels, 24 hours after first dose on day 14)?
**A.** at least 40%

**Q.** What about the “Mean maximum percent change from baseline in 2,3-DPG” value (2,3-DPG blood levels; HV MAD, N = 36) of the same compound?
**A.** −56.3%

**Q.** And the “Mean maximum percent change from baseline in 2,3-DPG” value (2,3-DPG blood levels; HV SAD, N = 24)?
**A.** −46.8%

**Q.** And the “median and mean reduction of 2,3-DPG relative to baseline” value (2,3-DPG blood levels; HV, all single dose levels, 24 hours after dose)?
**A.** at least 30%

**Q.** What about the “lag of maximum 2,3-DPG decrease behind maximum plasma concentration” value (2,3-DPG blood levels; HV, single 200-1000 mg dose) of the same compound?
**A.** about 24 hours

**Q.** And the “Median percentage change in 2,3-DPG levels” value (“Median percentage change” below) (2,3-DPG blood levels; HV, single dose 200 mg, 0 h after dose)?
**A.** 0.0%

**Q.** And the “Median percentage change” value (2,3-DPG blood levels; HV, single dose 200 mg, 8 h after dose)?
**A.** −17%

**Q.** What about the “Median percentage change” value (2,3-DPG blood levels; HV, single dose 200 mg, 48 h after dose) of the same compound?
**A.** −29%

**Q.** And the “Median percentage change” value (2,3-DPG blood levels; HV, single dose 400 mg, 0 h after dose)?
**A.** 0.0%

**Q.** What about the “Median percentage change” value (2,3-DPG blood levels; HV, single dose 400 mg, 8 h after dose) of the same compound?
**A.** −29%

**Q.** What about the “Median percentage change” value (2,3-DPG blood levels; HV, single dose 400 mg, 72 h after dose) of the same compound?
**A.** −30%

**Q.** And the “Median percentage change” value (2,3-DPG blood levels; HV, single dose 700 mg, 0 h after dose)?
**A.** 0.0%

**Q.** What about the “Median percentage change” value (2,3-DPG blood levels; HV, single dose 700 mg, 6 h after dose) of the same compound?
**A.** −29%

**Q.** And the “Median percentage change” value (2,3-DPG blood levels; HV, single dose 700 mg, 16 h after dose)?
**A.** −46%

**Q.** And the “Median percentage change” value (2,3-DPG blood levels; HV, single dose 700 mg, 36 h after dose)?
**A.** −46%

**Q.** What about the “Median percentage change” value (2,3-DPG blood levels; HV, single dose 1000 mg, 36 h after dose) of the same compound?
**A.** −47%
